Laboratory results from patent US8871753B2, “Macrocyclic compounds and their use as kinase inhibitors” (Incyte Corporation, priority 2008, dated 2014).
Counter-ions that a name gives are not always drawn. Like-named read-outs stand apart in the source and are kept apart here.

Columns and labels:
Type in all cases: biochemical
[1] = target: T1, human JAK2 (a.a. 828-1132) (Homo sapiens, UniProt O60674); assay: In vitro JAK kinase assay (HTRF, phosphorylation of a biotinylated peptide), JAK2
T1 construct: JAK2 (a.a. 828-1132); His tag (N); made in house; host or cells: insect cells (baculovirus)
T1 sequence (O60674 828-1132): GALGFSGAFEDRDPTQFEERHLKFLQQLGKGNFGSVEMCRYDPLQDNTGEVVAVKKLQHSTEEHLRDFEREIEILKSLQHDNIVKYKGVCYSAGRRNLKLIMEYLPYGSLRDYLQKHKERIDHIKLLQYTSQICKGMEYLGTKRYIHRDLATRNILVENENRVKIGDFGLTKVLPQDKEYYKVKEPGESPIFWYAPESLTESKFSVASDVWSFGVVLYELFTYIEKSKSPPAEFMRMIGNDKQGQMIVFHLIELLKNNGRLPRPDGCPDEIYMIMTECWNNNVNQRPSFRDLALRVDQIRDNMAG
How it was run: (§1)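 Kinase activity was measured as phosphorylation of a biotinylated peptide, with ATP at 90 μM for JAK1, 30 μM for JAK2 and 3 μM for JAK3. Reactions ran 1 hr at room temperature, were stopped with EDTA plus SA-APC and Eu-Py20, and were read by HTRF after 40 minutes of antibody binding.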

[2] = target: T2, Recombinant Human Anaplastic Lymphoma Kinase (Homo sapiens, UniProt Q9UM73); assay: ALK HTRF kinase assay
T2 construct: purchased Invitrogen, Carlsbad, Calif
T2 sequence (Q9UM73 19-1620): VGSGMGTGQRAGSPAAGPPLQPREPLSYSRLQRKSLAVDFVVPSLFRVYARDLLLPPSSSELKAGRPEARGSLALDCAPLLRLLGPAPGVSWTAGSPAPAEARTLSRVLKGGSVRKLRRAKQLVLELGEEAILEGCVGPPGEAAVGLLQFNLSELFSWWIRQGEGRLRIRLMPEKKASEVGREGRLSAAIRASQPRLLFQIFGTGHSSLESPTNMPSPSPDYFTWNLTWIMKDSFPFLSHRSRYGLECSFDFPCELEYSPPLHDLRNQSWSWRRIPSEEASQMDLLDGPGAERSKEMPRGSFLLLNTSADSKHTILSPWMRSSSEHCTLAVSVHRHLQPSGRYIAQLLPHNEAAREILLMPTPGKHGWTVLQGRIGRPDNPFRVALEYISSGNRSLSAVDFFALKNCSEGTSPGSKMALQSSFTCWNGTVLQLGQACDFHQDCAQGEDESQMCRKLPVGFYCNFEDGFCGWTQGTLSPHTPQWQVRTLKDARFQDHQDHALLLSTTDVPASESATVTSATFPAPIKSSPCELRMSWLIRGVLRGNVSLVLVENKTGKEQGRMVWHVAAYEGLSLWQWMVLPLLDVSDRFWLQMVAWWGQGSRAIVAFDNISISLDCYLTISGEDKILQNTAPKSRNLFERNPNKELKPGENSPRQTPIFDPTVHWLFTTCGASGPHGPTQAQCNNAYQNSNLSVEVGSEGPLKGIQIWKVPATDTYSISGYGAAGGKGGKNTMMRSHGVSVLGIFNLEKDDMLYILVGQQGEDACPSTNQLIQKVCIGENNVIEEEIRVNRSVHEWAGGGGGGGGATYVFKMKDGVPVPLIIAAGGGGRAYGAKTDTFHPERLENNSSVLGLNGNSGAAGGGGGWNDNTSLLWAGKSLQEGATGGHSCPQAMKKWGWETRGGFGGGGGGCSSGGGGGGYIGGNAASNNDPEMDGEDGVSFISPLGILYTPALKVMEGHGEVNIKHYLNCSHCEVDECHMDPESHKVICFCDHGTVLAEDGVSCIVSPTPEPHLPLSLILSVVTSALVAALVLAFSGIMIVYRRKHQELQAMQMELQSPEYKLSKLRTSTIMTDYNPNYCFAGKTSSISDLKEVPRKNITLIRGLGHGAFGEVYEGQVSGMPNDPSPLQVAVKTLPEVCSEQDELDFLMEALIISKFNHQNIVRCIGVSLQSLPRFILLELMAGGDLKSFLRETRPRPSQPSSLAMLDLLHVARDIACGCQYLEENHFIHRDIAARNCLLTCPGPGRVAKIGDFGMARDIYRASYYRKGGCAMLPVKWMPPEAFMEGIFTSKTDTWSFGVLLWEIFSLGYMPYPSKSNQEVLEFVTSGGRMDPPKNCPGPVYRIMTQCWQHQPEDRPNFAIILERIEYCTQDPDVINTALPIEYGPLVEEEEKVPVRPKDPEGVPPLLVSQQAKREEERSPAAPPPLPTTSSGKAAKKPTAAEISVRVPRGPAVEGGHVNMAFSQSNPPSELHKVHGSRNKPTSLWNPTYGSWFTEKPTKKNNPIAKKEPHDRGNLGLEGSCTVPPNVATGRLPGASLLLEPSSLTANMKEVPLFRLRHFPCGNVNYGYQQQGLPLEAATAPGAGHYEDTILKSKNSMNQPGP
How it was run: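 TR-FRET read-out (Eu anti-pTyr antibody + streptavidin-APC) of biotin-peptide phosphorylation by recombinant human enzyme; IC50 by sigmoidal fit with top/bottom baselines and Hill slope.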

[3] = target: T3, human JAK1 (a.a. 837-1142) (Homo sapiens, UniProt P23458); assay: In vitro JAK kinase assay (HTRF, phosphorylation of a biotinylated peptide), JAK1; details: read-out: JAK1 IC50
T3 construct: human JAK1 (a.a. 837-1142); His tag (N); made in house; host or cells: insect cells (baculovirus)
T3 sequence (P23458 849-1154): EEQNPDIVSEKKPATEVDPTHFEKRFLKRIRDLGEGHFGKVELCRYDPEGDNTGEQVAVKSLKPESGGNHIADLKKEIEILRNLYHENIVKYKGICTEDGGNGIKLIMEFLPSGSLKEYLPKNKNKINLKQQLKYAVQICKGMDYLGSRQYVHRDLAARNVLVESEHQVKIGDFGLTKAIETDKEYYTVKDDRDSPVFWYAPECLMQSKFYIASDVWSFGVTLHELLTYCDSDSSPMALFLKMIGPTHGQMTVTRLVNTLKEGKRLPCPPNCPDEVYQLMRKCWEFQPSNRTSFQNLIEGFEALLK
How it was run: as §1

TYK2 = TYK2 (Homo sapiens, UniProt P29597); assay: TYK2 kinase inhibition (Table A1)
Sequence of TYK2 (P29597 whole entry): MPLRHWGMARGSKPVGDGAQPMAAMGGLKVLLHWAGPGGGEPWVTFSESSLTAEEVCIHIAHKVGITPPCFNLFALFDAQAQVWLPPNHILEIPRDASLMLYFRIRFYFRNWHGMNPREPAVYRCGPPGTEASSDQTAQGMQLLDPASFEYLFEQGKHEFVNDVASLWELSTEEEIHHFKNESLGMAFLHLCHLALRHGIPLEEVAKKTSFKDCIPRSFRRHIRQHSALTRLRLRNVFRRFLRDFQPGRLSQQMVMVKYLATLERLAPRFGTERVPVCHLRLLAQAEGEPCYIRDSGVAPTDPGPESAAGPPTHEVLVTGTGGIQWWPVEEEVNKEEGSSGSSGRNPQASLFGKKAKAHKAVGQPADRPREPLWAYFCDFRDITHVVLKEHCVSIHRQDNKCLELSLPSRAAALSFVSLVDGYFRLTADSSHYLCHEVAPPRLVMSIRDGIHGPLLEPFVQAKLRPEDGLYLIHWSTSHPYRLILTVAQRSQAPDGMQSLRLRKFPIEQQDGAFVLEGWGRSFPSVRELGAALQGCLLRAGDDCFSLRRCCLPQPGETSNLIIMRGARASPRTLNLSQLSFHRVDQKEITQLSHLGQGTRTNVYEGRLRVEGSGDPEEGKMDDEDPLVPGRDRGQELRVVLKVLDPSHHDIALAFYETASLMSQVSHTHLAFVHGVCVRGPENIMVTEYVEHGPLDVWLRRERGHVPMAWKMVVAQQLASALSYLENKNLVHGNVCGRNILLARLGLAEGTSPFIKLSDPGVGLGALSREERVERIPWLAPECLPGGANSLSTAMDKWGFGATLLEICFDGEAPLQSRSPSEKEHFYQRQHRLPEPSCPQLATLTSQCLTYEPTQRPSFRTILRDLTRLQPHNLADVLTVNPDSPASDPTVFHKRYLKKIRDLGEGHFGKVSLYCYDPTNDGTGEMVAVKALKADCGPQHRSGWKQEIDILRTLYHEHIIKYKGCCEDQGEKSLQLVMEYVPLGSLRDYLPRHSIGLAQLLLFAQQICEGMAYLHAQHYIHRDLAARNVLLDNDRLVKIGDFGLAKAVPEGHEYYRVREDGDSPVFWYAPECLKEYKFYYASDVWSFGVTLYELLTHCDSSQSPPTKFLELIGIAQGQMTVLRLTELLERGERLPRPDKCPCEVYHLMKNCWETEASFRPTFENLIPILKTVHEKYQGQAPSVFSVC

[4] = target: T4, human JAK3 (a.a. 781-1124) (Homo sapiens, UniProt P52333); assay: In vitro JAK kinase assay (HTRF, phosphorylation of a biotinylated peptide), JAK3
T4 construct: JAK3 (a.a. 781-1124); His tag (N); made in house; host or cells: insect cells (baculovirus)
T4 sequence (P52333 781-1124): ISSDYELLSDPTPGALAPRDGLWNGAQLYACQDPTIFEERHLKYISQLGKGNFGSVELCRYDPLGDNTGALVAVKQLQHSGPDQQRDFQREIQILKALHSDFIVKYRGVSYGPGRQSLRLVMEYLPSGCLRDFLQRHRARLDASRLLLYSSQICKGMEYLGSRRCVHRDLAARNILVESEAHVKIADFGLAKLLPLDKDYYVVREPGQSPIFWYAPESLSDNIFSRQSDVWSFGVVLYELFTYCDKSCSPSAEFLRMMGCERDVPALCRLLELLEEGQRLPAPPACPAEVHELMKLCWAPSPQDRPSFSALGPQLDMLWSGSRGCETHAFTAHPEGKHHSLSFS
How it was run: as §1

[5] = compound at a concentration of 500 nM or 1 mM (not specified), cells shown as percentage
[6] = method AA1 (30 μM ATP) or AA2 (1000 μM ATP), not stated per value
[7] = compound at 500 nM or 1 mM, 90 μM ATP
[8] = method AA1 (90 μM ATP) or AA2 (1000 μM ATP), not stated per value
[9] = method AA1 (3 μM ATP) or AA2 (1000 μM ATP), not stated per value
[10] = percentage inhibition of the example compound at a concentration of 500 nM or 1 mM (not specified which)
[11] = Table B1, cells without percent sign

| IC50 ([1]; Table B1) | ALK % of inhibition at a concentration of 500 nM or 1 mM [2, 5] | IC50 ([3]; Table B1) | IC50 (TYK2; Table B1) | IC50 ([4]; Table B1) | IC50 [1, 6] | ALK % of inhibition at a concentration of 500 nM or 1 mM [2, 7] | IC50 [3, 8] | IC50 (TYK2) | IC50 [4, 9] | Structure (SMILES) | other results |
| --- | --- | --- | --- | --- | --- | --- | --- | --- | --- | --- | --- |
| 2.2 nM | 54% | 0.84 nM | 8 nM | 7.6 nM |  |  |  |  |  | O=C(Nc1ccc2cc1CCc1cccc(c1)Nc1ncc(Cl)c(n1)N2)c1ccc(C(F)(F)F)nc1 [Example B77, N-[6-Chloro-2,4,8,22-tetraazatetracyclo[14.3.1.1(3,7).1(9,13)]docosa-1(20), 3(22),4,6,9(21),10,12,16,18-nonaen-12-yl]-6-(trifluoromethyl)nicotinamide bis(trifluoroacetate)] |  |
|  |  |  |  |  |  |  |  |  |  | Clc1cnc2nc1Nc1cccc(c1)COc1cccc(c1)N2 [Example D6, 6-Chloro-15-oxa-2,4,8,22-tetraazatetracyclo[14.3.1.1(3,7).1(9,13)]docosa-1(20),3(22),4,6,9(21),10,12,16,18-nonaene trifluoroacetate] | IC50 ([1]; Table D1): 37 nM; IC50 ([2]; Table D1, 90 μM ATP): 4190 nM; IC50 ([3]; Table D1): 36 nM; IC50 (TYK2; Table D1): 16 nM; IC50 ([4]; Table D1): > 100 nM |
|  |  |  |  |  | 244 nM | 18% | 11 nM | 675 nM | > 10000 nM | O=C(CC1CCN(c2nc3cccnc3o2)CC1)Nc1ccc2cc1CCc1cncc(c1)Nc1ncc(Cl)c(n1)N2 [Example A158, N-[6-Chloro-2,4,8,18,22-pentaazatetracyclo[14.3.1.1(3,7).1(9,13)]docosa-1(20),3(22),4,6,9(21),10,12,16,18-nonaen-12-yl]-2-(1-[1,3]oxazolo[5,4-b]pyridin-2-ylpiperidin-4-yl)acetamide tris(trifluoroacetate)] |  |
| 56 nM |  | 20 nM | 2.8 nM | 7.5 nM |  |  |  |  |  | O=C(NO)Nc1ccc2cc1CCc1cccc(c1)Nc1ncc(Cl)c(n1)N2 [Example B324, N-[6-Chloro-2,4,8,22-tetraazatetracyclo[14.3.1.1(3,7).1(9,13)]docosa-1(20),3(22),4,6,9(21),10,12,16,18-nonaen-12-yl]-N′-hydroxyurea trifluoroacetate] | ALK % of inhibition at a concentration of 500 nM or 1 mM [2, 10]: 16% |
|  |  |  |  |  | 10 nM | 21% | 12 nM | 32 nM | 60 nM | CC(Oc1ccc2cc1CCc1cccc(c1)Nc1ncc(Cl)c(n1)N2)C(=O)Nc1ccccc1 (centres unmarked) [Example A16, 2-{[6-Chloro-2,4,8,22-tetraazatetracyclo[14.3.1.1(3,7).1(9,13)]docosa-1(20),3(22),4,6,9(21),10,12,16,18-nonaen-12-yl]oxy}-N-phenylpropanamide trifluoroacetate] |  |
| 1630 nM | 3.2% | 117 nM | 3830 nM | > 10000 nM |  |  |  |  |  | Cc1ncoc1C(=O)N1CC[C@H](NC(=O)Nc2ccc3cc2CCc2cncc(c2)Nc2ncc(Cl)c(n2)N3)C1 [Example B273, N-[6-Chloro-2,4,8,18,22-pentaazatetracyclo[14.3.1.1(3,7).1(9,13)]docosa-1(20),3(22),4,6,9(21),10,12,16,18-nonaen-12-yl]-N′-{(3S)-1-[(4-methyl-1,3-oxazol-5-yl)carbonyl]pyrrolidin-3-yl}urea bis(trifluoroacetate)] |  |
| 9 nM | 40% | 3.9 nM | 16 nM | 35 nM |  |  |  |  |  | CCc1ccccc1NC(=O)Nc1ccc2cc1CCc1cccc(c1)Nc1ncc(Cl)c(n1)N2 [Example B97, N-[6-Chloro-2,4,8,22-tetraazatetracyclo[14.3.1.1(3,7).1(9,13)]docosa-1(20), 3(22),4,6,9(21),10,12,16,18-nonaen-12-yl]-N′-(2-ethylphenyl)urea trifluoroacetate] |  |
|  |  |  |  |  | 10 nM | 21% | 18 nM | 22 nM | 6.2 nM | C[C@H](O)C(=O)Nc1ccc2cc1CCc1cccc(c1)Nc1ncc(Cl)c(n1)N2 [Example A106, (2S)—N-[6-Chloro-2,4,8,22-tetraazatetracyclo[14.3.1.1(3,7).1(9,13)]docosa-1(20),3(22),4,6,9(21),10,12,16,18-nonaen-12-yl]-2-hydroxypropanamide trifluoroacetate] |  |
|  |  |  |  |  | 38 nM | 20% | 8 nM | 61 nM | 239 nM | CC(C)(C)C(=O)N1CCC(CC(=O)Nc2ccc3cc2CCc2cncc(c2)Nc2ncc(Cl)c(n2)N3)CC1 [Example A112, N-[6-Chloro-2,4,8,18,22-pentaazatetracyclo[14.3.1.1(3,7).1(9,13)]docosa-1(20),3(22),4,6,9(21),10,12,16,18-nonaen-12-yl]-2-[1-(2,2-dimethylpropanoyl)piperidin-4-yl]acetamide bis(trifluoroacetate)] |  |
|  |  |  |  |  | 45 nM | 34% | 28 nM | 84 nM | 110 nM | O=C(Nc1ccc2cc1CCc1cccc(c1)Nc1ncc(Cl)c(n1)N2)C1CCN(C(=O)c2ccccc2)CC1 [Example A30, 1-Benzoyl-N-[6-chloro-2,4,8,22-tetraazatetracyclo[14.3.1.1(3,7).1(9,13)]docosa-1(20),3(22),4,6,9(21),10,12,16,18-nonaen-12-yl]piperidine-4-carboxamide trifluoroacetate] |  |
| 7 nM | 13% | 3.8 nM | 23 nM | 52 nM |  |  |  |  |  | CC(C)(C)OC(=O)N1CCN(CCNC(=O)Nc2ccc3cc2CCc2cccc(c2)Nc2ncc(Cl)c(n2)N3)CC1 [Example B259, tert-Butyl 4-{2-[({[6-chloro-2,4,8,22-tetraazatetracyclo[14.3.1.1(3,7).1(9,13)]docosa-1(20),3(22),4,6,9(21),10,12,16,18-nonaen-12-yl]amino}carbonyl)amino]ethyl}piperazine-1-carboxylate] |  |
| 0.11 nM |  | 0.42 nM | 0.27 nM | 6.4 nM |  |  |  |  |  | O=S(=O)(Nc1ccc2cc1CCc1cccc(c1)Nc1ncc(Cl)c(n1)N2)c1ccccc1Cl [Example B137, 2-Chloro-N-[6-chloro-2,4,8,22-tetraazatetracyclo[14.3.1.1(3,7).1(9,13)]docosa-1(20),3(22),4,6,9(21),10,12,16,18-nonaen-12-yl]benzenesulfonamide trifluoroacetate] | IC50 [2, 11]: 580 nM |
|  |  |  |  |  | 81 nM | 42% | 6.3 nM | 89 nM | > 200 nM | O=C(CC1CCN(c2cccc(F)n2)CC1)Nc1ccc2cc1CCc1cncc(c1)Nc1ncc(Cl)c(n1)N2 [Example A181, N-[6-Chloro-2,4,8,18,22-pentaazatetracyclo[14.3.1.1(3,7).1(9,13)]docosa-1(20),3(22),4,6,9(21),10,12,16,18-nonaen-12-yl]-2-[1-(6-fluoropyridin-2-yl)piperidin-4-yl]acetamide tris(trifluoroacetate)] |  |
| 217 nM |  | 36 nM | 66 nM | > 400 nM |  |  |  |  |  | O=C(Nc1ccc2cc1CCc1cncc(c1)Nc1ncc(Cl)c(n1)N2)N1CCN(c2ccc(Cl)cc2)CC1 [Example B307, N-[6-Chloro-2,4,8,18,22-pentaazatetracyclo[14.3.1.1(3,7).1(9,13)]docosa-1(20),3(22),4,6,9(21),10,12,16,18-nonaen-12-yl]-4-(4-chlorophenyl)piperazine-1-carboxamide tris(trifluoroacetate)] | ALK % of inhibition at a concentration of 500 nM or 1 mM [2, 10]: 74% |
| 6.7 nM | 15% | 5 nM | 22 nM | 35 nM |  |  |  |  |  | O=C(NCCNC(=O)c1ccccc1)Nc1ccc2cc1CCc1cccc(c1)Nc1ncc(Cl)c(n1)N2 [Example B189, N-{2-[({[6-Chloro-2,4,8,22-tetraazatetracyclo[14.3.1.1(3,7).1(9,13)]docosa-1(20),3(22),4,6,9(21),10,12,16,18-nonaen-12-yl]amino}carbonyl)amino]ethyl}benzamide trifluoroacetate] |  |
| 8.3 nM |  | 7.6 nM | 21 nM | 87 nM |  |  |  |  |  | O=C(Nc1ccc2cc1CCc1cccc(c1)Nc1ncc(Cl)c(n1)N2)c1ccccn1 [Example B37, N-[6-Chloro-2,4,8,22-tetraazatetracyclo[14.3.1.1(3,7).1(9,13)]docosa-1(20), 3(22),4,6,9(21),10,12,16,18-nonaen-12-yl]pyridine-2-carboxamide bis(trifluoroacetate)] | IC50 [2, 11]: > 10000 nM |
